From paper PMC7519686, “Engineering and application of a biosensor with focused ligand specificity” (Nature Communications, 2020)

What was measured:
Format in all cases: binding
LysG [1] = biological target: T1, LysG (Corynebacterium glutamicum, UniProt P94632); assay: X-ray co-crystal structure ([…] Å) and ITC; set-up: full-length LysG
T1 sequence (P94632 1-290): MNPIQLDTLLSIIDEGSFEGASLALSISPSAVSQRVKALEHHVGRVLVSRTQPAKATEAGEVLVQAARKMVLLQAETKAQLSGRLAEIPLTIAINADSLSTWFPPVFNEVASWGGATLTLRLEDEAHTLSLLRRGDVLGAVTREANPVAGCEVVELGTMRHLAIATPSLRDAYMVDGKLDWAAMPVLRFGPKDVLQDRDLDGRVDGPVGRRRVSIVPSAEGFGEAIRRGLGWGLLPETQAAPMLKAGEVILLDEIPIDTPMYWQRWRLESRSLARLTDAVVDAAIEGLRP

LysG-A219L [2] = biological target: T2, LysG-A219L (Corynebacterium glutamicum, UniProt P94632, A219L); assay: ITC with purified protein (fixed stoichiometry of two ligands per tetramer)
LysG [3] = biological target: T1, LysG; assay: as above
LysG-A219L [4] = biological target: T2, LysG-A219L; assay: ITC with purified protein
LysG [5] = biological target: T1, LysG; assay: ITC with purified protein

`N=C(N)NCCC[C@H](N)C(=O)O` [L-arginine] gave a Kd (LysG [1]) of 1150 µM and a Kd (LysG-A219L [2]) of 9620 µM.
`NCCCC[C@H](N)C(=O)O` [L-lysine] showed a Kd (LysG [3]) of 3290 µM.
In the case of `N[C@@H](Cc1c[nH]cn1)C(=O)O` [L-histidine], the Kd (LysG-A219L [4]) is reported as 20.7 µM and the Kd (LysG [5]) is reported as 16 µM.
